{"source": "patent US20100240656A1", "about": "“COMPOUNDS AS HSP90 INHIBITORS” (ORYZON GENOMICS, S.A., priority 2007, published 2010)", "system": "MCF-7", "assay": "Cell growth inhibition by AlamarBlue method, MCF-7", "type": "cell-based, human", "conditions": "Homo sapiens, MCF7; MCF-7, 72 hours; read-out: Cell growth inhibition values (EC50) obtained with AlamarBlue method", "procedure": "The human colon cancer cell line HCT-116 and the human breast cell lines MCF-7 and SKBr3 were from the American Type Culture Collection (ATCC; CCL-247, HTB-22 and HTB-30, respectively).\nThe HCT-116 and SKBr3 cell lines were maintained in DMEM GlutaMAX (Invitrogen) supplemented with 10% fetal calf serum and the MCF-7 cell line was maintained in RPMI1640 GlutaMAX (Invitrogen) containing 1 mM sodium pyruvate and 10% fetal calf serum. Cells were grown in a humidified incubator at 37° C. in 5% CO2\nCells were plated in 96-well plates (Costar, 3596) at a density of 6000 cells/well in 50 μL medium 24 h before addition of the compounds. Compounds were then added in 8 concentrations, each in triplicate (dilution series of 1 to 3). To do so, a compound-dilution plate at 200× the screening concentrations was prepared in DMSO 100% (Sigma, 154938). Then, 1.7 μL of the 200× diluted compounds were transferred to a new plate and 170 μL of media were added and mixed with the pipette (plate at 2×). Columns 11 and 12 of this plate (controls) were filled with 1% DMSO in cell media (i.e. 1.7 μL DMSO and 170 μL cell media). Finally, 50 μL of this intermediate plate at 2× were transferred to the plate containing the seeded cells and slowly shaken manually. Cells were grown as described above. AlamarBlue viability assay (Biosource, Invitrogen, DAL1100) was performed 72 hours later following manufacturer's protocol. In brief, AlamarBlue diluted in media was added to cells to have a 5% solution (a 2× solution was prepared in media and 100 μL of this solution were transferred to each well, i.e. final volume of 200 μL). Cells were incubated at 37° C., 3 hours and at room temperature for an additional 30 min. Cells with no compound and, cells with no compound and lysed with triton X-100 (30 μL/well added 10 min before treatment with AlamarBlue) were used as controls (6 replicates of each). Fluorescence was monitored at 530 nm excitation and 590 nm emission wavelengths. Results were quantified using ELx800 Universal Microplate Reader (Bio-Tek Instruments, Inc.). EC50 were calculated as the dose of compound required to inhibit cell growth by 50%."}
{"compound": "NCCCCCn1c(Sc2cc3c(cc2I)OCO3)nc(C(N)=O)c1N", "note": "[Example 6, 5-amino-1-(5-amino-pentyl)-2-(6-iodo-benzo[1,3]dioxol-5-ylsulfanyl)-1H-imidazole-4-carboxamide]", "values": [{"measurement": "EC50", "result": 15.9, "unit": "µM"}]}
